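Grown in 96-well plates, cells were treated for 48 hours with each compound at five concentrations. Insufficient inhibition: endpoint recorded as highest concentration tested. The concentration for 50% growth inhibition is given as GI50.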 Active and inactive are the calls of the source. Rule as the data show it: active = GI50 up to about 1.1 µM and inactive = higher.
Assays:
Assay in all cases: inhibition of tumour cell growth, NCI panel, 48 h
CCRF-CEM = test system: CCRF-CEM
COLO 205 = test system: COLO 205
DMS-114 = test system: DMS-114
HL-60 = test system: HL-60
HT-29 = test system: HT-29
LOX IMVI = test system: LOX IMVI
M14 = test system: M14
NCI-H460 = test system: NCI-H460
RPMI-8226 = test system: RPMI-8226
SF-268 = test system: SF-268
SK-MEL-5 = test system: SK-MEL-5
SN12C = test system: SN12C
SNB-75 = test system: SNB-75
ACHN = test system: ACHN
NCI-H226 = test system: NCI-H226
RXF 393 = test system: RXF 393
DU-145 = test system: DU-145
MDA-MB-435 = test system: MDA-MB-435
NCI/ADR-RES = test system: NCI/ADR-RES
T47D = test system: T47D

Row | SMILES | GI50 (CCRF-CEM) | GI50 (COLO 205) | GI50 (DMS-114) | GI50 (HL-60) | GI50 (HT-29) | GI50 (LOX IMVI) | GI50 (M14) | GI50 (NCI-H460) | GI50 (RPMI-8226) | GI50 (SF-268) | GI50 (SK-MEL-5) | GI50 (SN12C) | GI50 (SNB-75) | GI50 (ACHN) | GI50 (NCI-H226) | GI50 (RXF 393) | GI50 (DU-145) | GI50 (MDA-MB-435) | GI50 (NCI/ADR-RES) | GI50 (T47D)
1 | COc1ccc(CNc2nc3c(NC(C)=O)cc(C(F)(F)F)cc3nc2-c2ccccc2)cc1OC | > 100 µM (inactive) | > 100 µM (inactive) | 15.2 µM (inactive) | > 100 µM (inactive) | > 100 µM (inactive) | > 100 µM (inactive) | 42.8 µM (inactive) | > 100 µM (inactive) | 68.5 µM (inactive) | 5.68 µM (inactive) | 21.5 µM (inactive) | > 100 µM (inactive) | 1.32 µM (inactive) | – | – | – | – | – | – | –
2 | COc1ccccc1NC(=O)CC(=O)N/N=C/c1ccc(N(CCC#N)S(=O)(=O)c2ccccc2)cc1 | > 100 µM (inactive) | > 100 µM (inactive) | > 100 µM (inactive) | > 100 µM (inactive) | > 100 µM (inactive) | > 100 µM (inactive) | > 100 µM (inactive) | > 100 µM (inactive) | > 100 µM (inactive) | > 100 µM (inactive) | > 100 µM (inactive) | – | > 100 µM (inactive) | > 100 µM (inactive) | > 100 µM (inactive) | – | – | – | – | –
3 | C=CC(=O)N1C/C(=C\c2ccc(Cl)c(Cl)c2)C(=O)/C(=C/c2ccc(Cl)c(Cl)c2)C1 | 0.0228 µM (active) | 0.112 µM (active) | 0.12 µM (active) | – | 0.0673 µM (active) | 0.288 µM (active) | 0.226 µM (active) | 0.152 µM (active) | 0.0246 µM (active) | 0.104 µM (active) | 0.478 µM (active) | 0.155 µM (active) | 0.187 µM (active) | 0.169 µM (active) | 1.25 µM (inactive) | 0.148 µM (active) | – | – | – | –
4 | Cn1c2ccccc2c2cc(-c3ccccc3)c3c(c21)C(=O)c1ccccc1C3=O | 5.19 µM (inactive) | 31.5 µM (inactive) | 12.5 µM (inactive) | 9.35 µM (inactive) | 31.9 µM (inactive) | – | 14.3 µM (inactive) | – | 4.67 µM (inactive) | 19.1 µM (inactive) | – | 28.6 µM (inactive) | 34.4 µM (inactive) | – | 22 µM (inactive) | – | – | – | – | –
5 | COC(=O)C1OC(SCCN)C(O)C(O)C1O (stereo not given) | > 100 µM (inactive) | > 100 µM (inactive) | – | > 100 µM (inactive) | > 100 µM (inactive) | > 100 µM (inactive) | > 100 µM (inactive) | > 100 µM (inactive) | > 100 µM (inactive) | > 100 µM (inactive) | > 100 µM (inactive) | > 100 µM (inactive) | > 100 µM (inactive) | > 100 µM (inactive) | > 100 µM (inactive) | > 100 µM (inactive) | > 100 µM (inactive) | > 100 µM (inactive) | > 100 µM (inactive) | > 100 µM (inactive)
6 | COC(=O)/C=C\C(C#N)(C#N)/N=C/c1cc(Br)cs1 | 0.0914 µM (active) | 1.98 µM (inactive) | – | 0.0465 µM (active) | 1.94 µM (inactive) | 2.06 µM (inactive) | 2.51 µM (inactive) | 19.6 µM (inactive) | 3.24 µM (inactive) | 6.1 µM (inactive) | 6.3 µM (inactive) | 3.18 µM (inactive) | 16.2 µM (inactive) | 2.22 µM (inactive) | 19.8 µM (inactive) | 2.27 µM (inactive) | 7.31 µM (inactive) | 2.38 µM (inactive) | 15.7 µM (inactive) | 2.12 µM (inactive)
7 | C[C@@]12C(=O)OC(=O)[C@]1(C)[C@H]1CC[C@@H]2O1 [CANTHARIDIN] | 1.19 µM (inactive) | 0.427 µM (active) | – | 1.63 µM (inactive) | 1.66 µM (inactive) | 2.23 µM (inactive) | 1.7 µM (inactive) | 2.72 µM (inactive) | 2.08 µM (inactive) | 1.77 µM (inactive) | 0.973 µM (active) | 2.01 µM (inactive) | 0.472 µM (active) | 1.18 µM (inactive) | 1.06 µM (active) | 0.484 µM (active) | 1.02 µM (active) | 1.89 µM (inactive) | 6.5 µM (inactive) | 1.68 µM (inactive)
